Assay results as given in patent US20060078540A1, “Dendritic cell nodes” (priority 2003, published 2006).

Tested on: bone marrow-derived dendritic cells
Test: Migration filter chemotaxis assay (chemotaxis index)
Type: cell-based
Method: The formyl peptide fMLP (formyl-Met-Leu-Phe) chemoattractant has been studied in addition to the protein chemokine MIP-3α. The formyl peptide is a bacterial byproduct that attracts DC's to sites of infection. It has been reported in the literature to be attractive for iDC's in mice and humans. […] For these experiments, DC's were placed on the top of a migration filter containing 5-μm pores with a reservoir of fMLP (or MIP-3α) at the indicated concentration on the other side. After 90 minutes, the number of cells migrating in response to the chemoattractants was counted and compared to controls. In FIG. 18, CI is the chemotaxis index, defined as (number of migrated cells in chemokine)/(number of migrated cells in control without chemokine).
The literature reports CI up to ≈5 max for bone-marrow-derived dendritic cells (BMDC's), but this experiment was carried out on late-stage DC cultures (DC's are starting to mature on Day 7) and the culture was not purified, thus a significant contamination with neutrophils is likely present; thus the real CI is possibly higher.

Row | Substance | maximal potency of attraction of dendritic cells (5-μm pore migration filter, 90 minutes, Day 7 unpurified cultures, high concentrations of fMLP) | concentration giving maximal migration (previous experiments, in line with literature reports) [µg/mL]
1 | formyl-Met-Leu-Phe [fMLP] | comparable to MIP-3α | –
2 | MIP-3α: protein chemokine | – | 1
